Assay results reported in the CheMixHub viscosity set.

Assay: xn = mol fraction of the nth substance listed

CC(=O)O.OCCNCCO + O
viscosity [mPa·s], 100 kPa
Conditions | x1 = 0.0126 | x2 = 0.1586 | x2 = 0.2897 | x2 = 0.4528 | x2 = 0.5293 | x2 = 0.6932 | x2 = 0.8573 | x2 = 0.9194 | x2 = 0.9549
293.15 K | 1.37 | 3625 | 2208 | 1042 | 658.3 | 162.6 | 19.25 | 6.362 | 3.027
303.15 K | 1.099 | 1492 | 946.1 | 473.9 | 310.7 | 87.19 | 12.67 | 4.584 | 2.301
313.15 K | 0.9188 | 686.5 | 452 | 239.3 | 162.4 | 51.05 | 8.836 | 3.442 | 1.818
323.15 K | 0.7821 | 346.1 | 236.3 | 131.8 | 92.22 | 32.12 | 6.455 | 2.69 | 1.484

O=P(O)(O)O + CCCCCCCCO
viscosity [mPa·s], 101 kPa
Conditions | x1 = 0.0266 | x1 = 0.0485 | x1 = 0.0865 | x1 = 0.1055 | x1 = 0.149 | x1 = 0.1867 | x1 = 0.2054 | x1 = 0.2487 | x1 = 0.2753 | x1 = 0.3073
293.15 K | 10.8 | 11.16 | 14.06 | 15.07 | 19.85 | 30.76 | 35.99 | 40.67 | 45.65 | 48.76
303.15 K | 6.465 | 7.085 | 8.327 | 9.414 | 11.8 | 15.79 | 17.99 | 21.76 | 25.77 | 28
313.15 K | 4.823 | 5.02 | 5.655 | 6.55 | 7.186 | 8.765 | 9.786 | 11.34 | 14.18 | 15.19
323.15 K | 3.614 | 3.765 | 3.995 | 4.223 | 4.716 | 5.176 | 5.564 | 6.076 | 6.308 | 6.896

CC(=O)OCCC(C)C + O=[N+]([O-])c1ccccc1
viscosity [mPa·s], 101 kPa
Conditions | 298.15 K | 308.15 K
x1 = 0.0448 | 1.721 | 1.488
x1 = 0.1512 | 1.567 | 1.367
x1 = 0.249 | 1.439 | 1.267
x1 = 0.3494 | 1.321 | 1.174
x1 = 0.4412 | 1.222 | 1.096
x1 = 0.5 | 1.164 | 1.05
x1 = 0.5486 | 1.118 | 1.014
x1 = 0.6489 | 1.03 | 0.945
x1 = 0.7486 | 0.951 | 0.882
x1 = 0.8513 | 0.876 | 0.823
x1 = 0.9464 | 0.814 | 0.773

CCOP(OCC)OCC + N#Cc1ccccc1
298.15 K, 101 kPa
Conditions | viscosity [mPa·s]
x1 = 0.2 | 1.089
x1 = 0.4 | 0.963
x1 = 0.6 | 0.848
x1 = 0.8 | 0.781

CCCCCCCC/C=C\CCCCCCCCO + CC(C)[C@@H]1CC[C@@H](C)C[C@H]1O
100 kPa, x2 = 0.5
Conditions | viscosity [mPa·s]
298.13 K | 19.79
298.15 K | 19.76
303.15 K | 14.47
313.13 K | 9.11
323.12 K | 5.98

CCOP(OCC)OCC + CC#N
298.15 K, 101 kPa
Conditions | viscosity [mPa·s]
x1 = 0.2 | 0.452
x1 = 0.4 | 0.512
x1 = 0.6 | 0.573
x1 = 0.8 | 0.642

CC(=O)OCCC(C)C + ClC(Cl)Cl
303.15 K, 101.3 kPa
Conditions | viscosity [mPa·s]
x1 = 0.1037 | 0.5821
x1 = 0.2076 | 0.6427
x1 = 0.301 | 0.6846
x1 = 0.3983 | 0.7145
x1 = 0.5044 | 0.7309
x1 = 0.6009 | 0.7377
x1 = 0.6966 | 0.7338
x1 = 0.8058 | 0.7252
x1 = 0.8911 | 0.7143

CCCOCC(C)OCC(C)O (stereo not drawn) + CCCCCCCO
298.15 K, 101 kPa
Conditions | viscosity [mPa·s]
x1 = 0.0145 | 5.795
x1 = 0.0297 | 5.725
x1 = 0.072 | 5.58
x1 = 0.1172 | 5.426
x1 = 0.1578 | 5.332
x1 = 0.2004 | 5.236
x1 = 0.2276 | 5.185
x1 = 0.2594 | 5.134
x1 = 0.3052 | 5.067
x1 = 0.4171 | 4.913
x1 = 0.4502 | 4.864
x1 = 0.5104 | 4.775
x1 = 0.5572 | 4.699
x1 = 0.6014 | 4.616
x1 = 0.6573 | 4.51
x1 = 0.7008 | 4.419
x1 = 0.7589 | 4.295
x1 = 0.8 | 4.207
x1 = 0.8512 | 4.098
x1 = 0.9118 | 3.985
x1 = 0.9578 | 3.916
x2 = 0.009 | 3.879
x2 = 0.0121 | 3.88

CC(=O)Nc1ccccc1 + Nc1ccccc1
viscosity [mPa·s], 101.3 kPa
Conditions | 298.15 K | 323.15 K
x1 = 0.108 | 46.7 | 23.6
x1 = 0.195 | 113.4 | 42.5

CC(=O)OCCC(C)C + CCCCOC(C)=O
viscosity [mPa·s], 101 kPa
Conditions | x1 = 0.2 | x1 = 0.4 | x1 = 0.6 | x1 = 0.8
293.15 K | 0.75 | 0.776 | 0.802 | 0.831
313.15 K | 0.575 | 0.592 | 0.611 | 0.629

N[C@@H](Cc1c[nH]c2ccccc12)C(=O)O + O
303 K, 100 kPa
Conditions | viscosity [mPa·s]
x1 = 0.087 | 0.934
x1 = 0.0954 | 1
x1 = 0.0971 | 1.018
x1 = 0.0979 | 1.055
x1 = 0.0983 | 1.077
x1 = 0.0985 | 1.101

CCCOCC(C)OCC(C)O (stereo not drawn) + CO
298.15 K, 101 kPa
Conditions | viscosity [mPa·s]
x1 = 0.0049 | 0.5615
x1 = 0.0317 | 0.671
x1 = 0.0663 | 0.8138
x1 = 0.1021 | 0.9677
x1 = 0.1531 | 1.186
x1 = 0.2032 | 1.412
x1 = 0.2563 | 1.651
x1 = 0.3125 | 1.899
x1 = 0.3556 | 2.09
x1 = 0.4091 | 2.314
x1 = 0.4685 | 2.55
x1 = 0.5204 | 2.746
x1 = 0.5557 | 2.869
x1 = 0.6337 | 3.117
x1 = 0.6879 | 3.273
x1 = 0.7232 | 3.366
x1 = 0.8407 | 3.639
x1 = 0.8827 | 3.724
x1 = 0.937 | 3.813

CC(=O)OCCC(C)C + Cc1ccccc1
viscosity [mPa·s], 101 kPa
Conditions | 298.15 K | 308.15 K
x1 = 0.0474 | 0.555 | 0.505
x1 = 0.1513 | 0.567 | 0.522
x1 = 0.2512 | 0.581 | 0.54
x1 = 0.3494 | 0.598 | 0.56
x1 = 0.4458 | 0.616 | 0.581
x1 = 0.4978 | 0.627 | 0.593
x1 = 0.5497 | 0.639 | 0.606
x1 = 0.649 | 0.664 | 0.632
x1 = 0.7499 | 0.692 | 0.661
x1 = 0.855 | 0.726 | 0.695
x1 = 0.9448 | 0.759 | 0.726

CCCC(=O)[O-].[NH3+]CCO + CCO
viscosity [mPa·s], 101 kPa
Conditions | x1 = 0.0158 | x2 = 0.7685 | x2 = 0.8306 | x2 = 0.8824 | x2 = 0.9289 | x2 = 0.9483 | x2 = 0.9671
293.15 K | 1.608 | 15.79 | 8.436 | 4.968 | 2.91 | 2.364 | 1.944
298.15 K | 1.458 | 13.23 | 7.272 | 4.398 | 2.598 | 2.148 | 1.752
303.15 K | 1.35 | 11.24 | 6.33 | 3.882 | 2.34 | 1.92 | 1.602
